What all share (format): cell-based
Experiment [1] concerns mantle cell lymphoma cell (Mino or JeKo-1). Briefly: Antiproliferative effect, MTS cell viability assay. Particulars: 72 h, mantle cell lymphoma cell (Mino or JeKo-1), MTS assay, read-out: IC50 (anti-proliferation). The method in brief:
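MTS read-out (formazan absorbance at 490 nm) after 72 h exposure of Mino cells to 0–1 μM compound (0.0001, 0.001, 0.01, 0.1, 1 μM). Palbociclib and abemaciclib served as positive controls.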
On the technique in general: Tetrazolium assays rely on reduction of a dye to a coloured formazan, in cell work by metabolically active cells.

The next experiment concerns the target T1, CDK4 (Homo sapiens, UniProt P11802).
T1 construct: endogenous in cells
Briefly: CDK4 degradation (DC50, Dmax).

For a further experiment, the target named is T2, CDK6 (Homo sapiens, UniProt Q00534).
T2 construct: endogenous in cells
T2 sequence (Q00534 whole entry): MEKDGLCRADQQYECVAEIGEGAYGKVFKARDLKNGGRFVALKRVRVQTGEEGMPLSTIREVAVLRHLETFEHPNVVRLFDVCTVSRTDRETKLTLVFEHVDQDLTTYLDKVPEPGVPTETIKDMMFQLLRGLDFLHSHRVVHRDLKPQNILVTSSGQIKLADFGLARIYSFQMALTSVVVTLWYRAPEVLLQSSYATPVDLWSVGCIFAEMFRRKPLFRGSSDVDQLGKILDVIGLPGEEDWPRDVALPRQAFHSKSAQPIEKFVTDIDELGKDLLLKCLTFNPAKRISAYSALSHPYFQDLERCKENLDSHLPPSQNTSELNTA
Briefly: CDK6 degradation (DC50, Dmax).

The structures appear in SMILES notation.

T1 sequence (P11802 whole entry): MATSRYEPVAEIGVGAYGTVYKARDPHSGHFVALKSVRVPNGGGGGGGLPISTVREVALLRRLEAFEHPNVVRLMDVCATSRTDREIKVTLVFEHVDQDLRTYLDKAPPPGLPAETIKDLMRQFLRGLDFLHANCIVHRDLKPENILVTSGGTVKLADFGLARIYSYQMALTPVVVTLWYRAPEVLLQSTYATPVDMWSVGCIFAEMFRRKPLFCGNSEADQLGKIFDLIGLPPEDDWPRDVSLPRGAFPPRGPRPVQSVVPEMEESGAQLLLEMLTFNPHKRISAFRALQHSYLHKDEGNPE

As a reminder, the DC50 is the concentration at which degradation of the target reaches its halfway point. A higher DC50 goes with degradation only at high concentration. As a reminder, the Dmax is the greatest extent of degradation seen. Lower therefore signals shallow degradation. With `CC(=O)c1c(C)c2cnc(Nc3ccc(N4CCN(C(=O)C5CCN(c6ccc7c(c6)C(=O)N(C6CCC(=O)NC6=O)C7=O)CC5)CC4)cn3)nc2n(C2CCCC2)c1=O` (stereo not drawn) [Compound 114, 5-(4-(4-(6-((6-acetyl-8-cyclopentyl-5-methyl-7-oxo-7,8-dihydropyrido[2,3-d]pyrimidin-2-yl)amino)pyridin-3-yl)piperazine-1-carbonyl)piperidin-1-yl)-2-(2,6-dioxopiperidin-3-yl) isoindoline-1,3-dione], the IC50 in experiment [1] is under 50 nM. The DC50 on CDK4 and on CDK6 was 50 to 200 nM each time. In addition, the Dmax at CDK4 and at CDK6 was over 80% throughout.
In the case of `Cc1nc2c(F)cc(-c3nc(Nc4ccc(CN5CCN(CCNc6ccc7c(c6)C(=O)N(C6CCC(=O)NC6=O)C7)CC5)cn4)ncc3F)cc2n1C(C)C` (stereo not drawn) [Compound 91, 3-(6-((2-(4-((6-((5-fluoro-4-(4-fluoro-1-isopropyl-2-methyl-1H-benzo[d]imidazol-6-yl)pyrimidin-2-yl)amino)pyridin-3-yl)methyl)piperazin-1-yl)ethyl)amino)-1-oxoisoindolin-2-yl)piperidine-2,6-dione], in experiment [1], the IC50 was under 50 nM. Also, at CDK4, the DC50 is under 50 nM and the Dmax was over 80%. On CDK6, this molecule returned a 50% degradation concentration (DC50) of under 50 nM and a Dmax of over 80%.
With `CC(=O)c1c(C)c2cnc(Nc3ccc(N4CCN(CCN5CCC(c6ccc7c(c6)C(=O)N(C6CCC(=O)NC6=O)C7=O)CC5)CC4)cn3)nc2n(C2CCCC2)c1=O` (stereo not drawn) [Compound 71, 5-(1-(2-(4-(6-((6-acetyl-8-cyclopentyl-5-methyl-7-oxo-7,8-dihydropyrido[2,3-d]pyrimidin-2-yl)amino)pyridin-3-yl)piperazin-1-yl)ethyl)piperidin-4-yl)-2-(2,6-dioxopiperidin-3-yl)isoindoline-1,3-dione], the IC50 in experiment [1] is 50 to 200 nM. On CDK4, the DC50 was over 200 nM and the Dmax was over 60%. On CDK6, this molecule gave a DC50 of over 200 nM and a Dmax of over 60%.
On to `CC(=O)c1c(C)c2cnc(Nc3ccc(N4CCN(C5CCN(C(=O)N6CCC(c7ccc8c(c7)C(=O)N(C7CCC(=O)NC7=O)C8=O)CC6)CC5)CC4)cn3)nc2n(C2CCCC2)c1=O` (stereo not drawn) [Compound 37, 5-(1-(4-(4-(6-((6-acetyl-8-cyclopentyl-5-methyl-7-oxo-7,8-dihydropyrido[2,3-d]pyrimidin-2-yl)amino)pyridin-3-yl)piperazin-1-yl)piperidine-1-carbonyl)piperidin-4-yl)-2-(2,6-dioxopiperidin-3-yl)isoindoline-1,3-dione], for which the IC50 in experiment [1] is over 200 nM. Moreover, at CDK4, the DC50 was over 200 nM and the Dmax was over 50%. Besides, at CDK6, the DC50 is over 200 nM and the Dmax was over 50%.
On to `Cc1nc2c(F)cc(-c3nc(Nc4ccc(CC5CCN(C6CCN(c7ccc(C(=O)NC8CCC(=O)NC8=O)cc7)CC6)CC5)cn4)ncc3F)cc2n1C(C)C` (stereo not drawn) [Compound 171, N-(2,6-dioxopiperidin-3-yl)-4-(4-((6-((5-fluoro-4-(4-fluoro-1-isopropyl-2-methyl-1H-benzo[d]imidazol-6-yl)pyrimidin-2-yl)amino)pyridin-3-yl)methyl)-[1,4′-bipiperidin]-1′-yl) benzamide], for which, in experiment [1], the IC50 fell in the range of 50 to 200 nM. At CDK4, this molecule showed a DC50 of 50 to 200 nM and a Dmax of over 60%. Besides, on CDK6, the DC50 was in the range of 50 to 200 nM and the Dmax is over 60%.
Turning to `Cc1nc2c(F)cc(-c3nc(Nc4ccc(CC5CCN(C6CCN(c7ccc8c(c7)CN(C7CCC(=O)NC7=O)C8=O)CC6)CC5)cn4)ncc3F)cc2n1C(C)C` (stereo not drawn) [Compound 170, 3-(5-(4-((6-((5-fluoro-4-(4-fluoro-1-isopropyl-2-methyl-1H-benzo[d]imidazol-6-yl)pyrimidin-2-yl)amino)pyridin-3-yl)methyl)-[1,4′-bipiperidin]-1′-yl)-1-oxoisoindolin-2-yl)piperidine-2,6-dione], the IC50 in experiment [1] was under 50 nM. On CDK4, this molecule returned a DC50 of under 50 nM and a Dmax of over 80%. Besides, on CDK6, the DC50 is under 50 nM and the Dmax was over 60%.

Values taken from patent US20230295118A1 (EnhancedBio Inc., priority 2022, published 2023).
